Where two headings read alike, the source gives them in different places.

The record followed here is patent US20140135310A1, “SULPHONAMIDE DERIVATIVES OF ALICYCLIC AMINES FOR THE TREATMENT OF CENTRAL NERVOUS SYSTEM DISEASES” (Adamed Sp. z o.o., priority 2011, published 2014).

One test concerns the target T1, receptors D4.4 (Homo sapiens, UniProt P21917).
T1 sequence (P21917 1-419): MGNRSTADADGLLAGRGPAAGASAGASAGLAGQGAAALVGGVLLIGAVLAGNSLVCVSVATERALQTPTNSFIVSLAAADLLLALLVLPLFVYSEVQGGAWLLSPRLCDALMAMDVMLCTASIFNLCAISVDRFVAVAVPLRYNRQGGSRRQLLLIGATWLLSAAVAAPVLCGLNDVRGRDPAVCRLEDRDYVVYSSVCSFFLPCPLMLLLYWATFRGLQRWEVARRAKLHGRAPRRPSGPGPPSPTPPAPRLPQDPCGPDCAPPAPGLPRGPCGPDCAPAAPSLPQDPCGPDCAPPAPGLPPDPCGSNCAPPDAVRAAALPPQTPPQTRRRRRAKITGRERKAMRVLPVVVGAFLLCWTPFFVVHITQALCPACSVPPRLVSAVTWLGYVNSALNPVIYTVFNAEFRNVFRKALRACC
The experiment in a line: Radioligand binding assay, dopaminergic D4 (D4.4) receptors. The conditions noted are these: test compound 1×10^−6 M. The method in brief:
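Scintillation read-out. Specific = total − nonspecific (excess cold ligand). Data as % of control specific binding / % inhibition; IC50 by Hill fit; Ki = IC50/(1+L/KD), KD from Scatchard plot.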

The target in another test is T2, 5-HT6 receptor (Homo sapiens, UniProt P50406).
T2 construct: purchased PerkinElmer
The experiment in a line: Radioligand binding assay, serotoninergic 5-HT6 receptors. The conditions noted are these: binding assay result in %, Table 5a. The method, boiled down: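 Values are Ki from Cheng–Prusoff, taking IC50 from Hill nonlinear regression of competition curves and KD from a Scatchard plot. Specific binding was total minus binding with excess unlabelled ligand. Radioligand displacement was detected by scintillation counting, and data were also reported as percent of control specific binding.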

For a further test, the target named is T3, 5-HT7 receptor (Homo sapiens, UniProt P34969).
T3 construct: purchased PerkinElmer
The experiment in a line: Radioligand binding assay, serotoninergic 5-HT7 receptors. Conditions: binding assay result in %, Table 5a. The method in brief: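 Ki values used the Cheng–Prusoff equation, with KD from Scatchard analysis, applied to IC50 from Hill fits of human 5-HT7 radioligand competition curves. Bound radioligand was counted by scintillation, and excess unlabelled ligand set the non-specific binding.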

The next test has as its target T4, α2C adrenergic receptors (Homo sapiens, UniProt P18825).
T4 construct: expressed in transfected cells; host or cells: CHO cells
T4 sequence (P18825 1-462): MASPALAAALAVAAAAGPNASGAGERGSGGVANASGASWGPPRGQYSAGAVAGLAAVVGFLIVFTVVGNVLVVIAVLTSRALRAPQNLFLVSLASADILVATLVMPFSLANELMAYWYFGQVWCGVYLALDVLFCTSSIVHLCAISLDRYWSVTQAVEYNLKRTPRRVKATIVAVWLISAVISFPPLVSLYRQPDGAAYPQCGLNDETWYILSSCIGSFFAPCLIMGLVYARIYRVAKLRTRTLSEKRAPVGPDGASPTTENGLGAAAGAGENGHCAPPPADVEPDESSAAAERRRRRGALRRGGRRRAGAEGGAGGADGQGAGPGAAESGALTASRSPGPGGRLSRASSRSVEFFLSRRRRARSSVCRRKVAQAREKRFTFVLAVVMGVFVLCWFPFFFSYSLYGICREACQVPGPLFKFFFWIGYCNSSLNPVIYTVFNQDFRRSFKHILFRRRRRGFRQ
The experiment in a line: Radioligand binding assay, adrenergic α2C receptors. The conditions noted are these: test compound 1×10^−6 M. The method in brief:
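Competitive radioligand binding at human α2C receptors, with scintillation counting. Nonspecific binding defined with excess unlabelled ligand; results given as % inhibition of control specific binding. IC50 from Hill-equation fits of competition curves; Ki via Cheng-Prusoff using radioligand concentration and Scatchard-derived KD.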

Test [1] deals with 5-HT2A serotoninergic receptors (Homo sapiens, UniProt P28223). The experiment in a line: Cellular functional assay, 5-HT2A serotoninergic receptors. The class given is cell-based. The method, boiled down: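 Response expressed as percent of control specific agonist response; EC50 or IC50 from Hill-equation non-linear regression on mean replicate values. For antagonists, apparent Kb derived by modified Cheng-Prusoff using reference agonist concentration and its EC50.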

The target of test [2] is 5-HT6 serotoninergic receptors (Homo sapiens, UniProt P50406). Description: Cellular functional assay, 5-HT6 serotoninergic receptors. The conditions noted are these: for 5-HT6 ag [%]: agonist mode, percent of control specific agonist response. Type of test: cell-based. The method in brief: (§1)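 Responses expressed as percent of control specific agonist response; EC50 or IC50 from Hill-equation nonlinear fits of mean replicate concentration-response curves. For antagonists, Kb derived by modified Cheng-Prusoff using reference agonist concentration and its EC50.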

In test [3] the target is 5-HT7 serotoninergic receptors (Homo sapiens, UniProt P34969). The experiment in a line: Cellular functional assay, 5-HT7 serotoninergic receptors. Type of test: cell-based. Conditions: for 5-HT7 ag [%]: agonist mode, percent of control specific agonist response. The method in brief:
as §1

Chain of 5-HT6 serotoninergic receptors (P50406 whole entry): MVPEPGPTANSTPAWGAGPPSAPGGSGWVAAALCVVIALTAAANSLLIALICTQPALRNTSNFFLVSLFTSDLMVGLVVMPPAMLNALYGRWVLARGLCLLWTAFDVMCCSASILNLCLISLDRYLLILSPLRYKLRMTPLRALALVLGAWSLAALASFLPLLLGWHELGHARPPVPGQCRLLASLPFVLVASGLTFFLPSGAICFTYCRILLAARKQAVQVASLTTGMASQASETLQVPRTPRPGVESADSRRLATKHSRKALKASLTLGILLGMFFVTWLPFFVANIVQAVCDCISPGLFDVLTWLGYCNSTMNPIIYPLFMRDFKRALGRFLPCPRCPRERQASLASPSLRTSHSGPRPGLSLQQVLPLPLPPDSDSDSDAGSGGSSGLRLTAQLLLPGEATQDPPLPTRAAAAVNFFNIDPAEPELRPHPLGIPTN
Chain of 5-HT7 serotoninergic receptors (P34969 whole entry): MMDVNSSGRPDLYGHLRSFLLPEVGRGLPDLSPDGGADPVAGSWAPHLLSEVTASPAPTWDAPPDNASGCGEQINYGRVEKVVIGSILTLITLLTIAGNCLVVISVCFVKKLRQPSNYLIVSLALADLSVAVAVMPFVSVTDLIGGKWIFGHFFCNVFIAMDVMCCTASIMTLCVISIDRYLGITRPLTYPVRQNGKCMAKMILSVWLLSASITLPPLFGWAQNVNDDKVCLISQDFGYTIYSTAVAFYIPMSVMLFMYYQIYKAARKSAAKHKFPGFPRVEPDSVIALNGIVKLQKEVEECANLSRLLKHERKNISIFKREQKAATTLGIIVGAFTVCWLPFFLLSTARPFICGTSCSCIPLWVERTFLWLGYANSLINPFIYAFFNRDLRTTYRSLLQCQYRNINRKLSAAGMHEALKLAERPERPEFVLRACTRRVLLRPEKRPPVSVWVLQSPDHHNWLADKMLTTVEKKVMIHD
Chain of 5-HT2A serotoninergic receptors (P28223 whole entry): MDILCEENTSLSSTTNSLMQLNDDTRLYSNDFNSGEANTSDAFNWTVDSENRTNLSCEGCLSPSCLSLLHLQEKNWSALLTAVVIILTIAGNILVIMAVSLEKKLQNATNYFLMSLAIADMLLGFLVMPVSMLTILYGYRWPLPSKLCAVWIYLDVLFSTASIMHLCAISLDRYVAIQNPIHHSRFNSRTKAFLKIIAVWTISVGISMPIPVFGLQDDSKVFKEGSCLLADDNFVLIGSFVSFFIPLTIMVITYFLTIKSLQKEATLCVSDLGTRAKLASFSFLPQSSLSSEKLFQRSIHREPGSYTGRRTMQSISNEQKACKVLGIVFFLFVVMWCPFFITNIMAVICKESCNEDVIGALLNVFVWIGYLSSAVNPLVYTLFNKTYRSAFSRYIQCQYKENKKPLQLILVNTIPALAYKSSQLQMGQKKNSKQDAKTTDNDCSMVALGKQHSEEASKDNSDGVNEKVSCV
T2 sequence (P50406 whole entry): as the sequence (P50406 whole entry) above
T3 sequence (P34969 whole entry): as the sequence (P34969 whole entry) above

With `O=S(=O)(NCC1CCN(CCCc2noc3cc(F)ccc23)C1)c1ccc2ccccc2c1` (stereo not shown) [Compound 240, N-[[1-[3-(6-Fluoro-1,2-benzoxazol-3-yl)propyl]pyrrolidin-3-yl]methyl]-naphthalene-2-sulphonamide], the inhibition at 1 µM on receptors D4.4 amounted to 57%; on 5-HT6 receptor, 93%; on 5-HT7 receptor, 90%; at α2C adrenergic receptors it was 84%. In test [1], the “5-HT2A ag [%]” value is listed as −1%. The “5-HT6 ag [%]” value in test [2] stood at 4%. Besides, the “5-HT7 ag [%]” value in test [3] is 0%.

Take “N-[1-[3-(6-Fluoro-1,2-benzoxazol-3-yl)propyl]pyrrolidin-3-yl]-1-methyl-imidazole-4-sulphonamide [Compound 217]”: the “D4.4 [%]” value on receptors D4.4 stood at 72%. Further, the “5-HT6 [%]” value on 5-HT6 receptor is recorded as 98%. In addition, on 5-HT7 receptor, the “5-HT7 [%]” value worked out at 97%. The “α2C [%]” value on α2C adrenergic receptors is given as 96%. In addition, in test [1] (agonist mode, percent of control specific agonist response), the “5-HT2A ag [%]” value was −2%. Also, the “5-HT6 ag [%]” value in test [2] was −6%. In test [2] (antagonist mode), the “5-HT6 antag [%]” value was determined as 85%. Besides, the “5-HT7 ag [%]” value in test [3] is given as 5%. The “5-HT7 antag [%]” value in test [3] (antagonist mode) came to 74%.
